Assay results published in PubChem BioAssay (NCI).
Values joined by “and” are separate entries in the source; they are usually repeats but may differ in a detail not shown here. Equal entries are not always repeated.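 48-hour exposure; five concentrations; linearly interpolated endpoints. GI50 = concentration required for 50% inhibition of growth. At the TGI there is no net growth.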

Assays:
Experiment in all cases: NCI-60 cell line screen, 48 h
DU-145 prostate = system: DU-145 prostate
HCT-15 colon = system: HCT-15 colon
HL-60(TB) leukemia = system: HL-60(TB) leukemia
MDA-N = system: MDA-N
SK-MEL-28 melanoma = system: SK-MEL-28 melanoma
SN12C renal = system: SN12C renal
SNB-75 CNS = system: SNB-75 CNS
TK-10 renal = system: TK-10 renal
U251 CNS = system: U251 CNS
UO-31 renal = system: UO-31 renal
SK-MEL-2 melanoma = system: SK-MEL-2 melanoma

SMILES	TGI (DU-145 prostate)	TGI (HCT-15 colon) [µM]	TGI (HL-60(TB) leukemia) [µM]	TGI (MDA-N) [µM]	TGI (SK-MEL-28 melanoma) [µM]	TGI (SN12C renal) [µM]	TGI (SNB-75 CNS) [µM]	TGI (TK-10 renal) [µM]	TGI (U251 CNS) [µM]	TGI (UO-31 renal) [µM]	TGI (SK-MEL-2 melanoma) [µM]	GI50 (DU-145 prostate) [µM]	GI50 (HCT-15 colon) [µM]	GI50 (SK-MEL-2 melanoma) [µM]	GI50 (SN12C renal) [µM]
O=C(NCCN1CCOCC1)c1cn2c(ccc3sc4ccccc4c(=O)c32)n1	> 100 µM	> 100	36.3	> 100	> 100	> 100	59.4	> 100	21.6	> 100					
CC(=O)OCC1OC(n2cc(F)c(=O)[nH]c2=O)C(NC(=O)OCc2ccccc2)C(OC(C)=O)C1OC(C)=O (centres undefined)		> 100	> 100		> 100	> 100	> 100		> 100	> 100	> 100				
Cc1nc(CC#N)n[nH]1	> 100 µM	> 100		> 100		> 100	> 100	> 100	> 100	> 100	> 100				
C/C(=N\N=C(\N)SB(F)F)c1ccc2ccccc2c1	> 100 µM	> 100		> 100	> 100	> 100	> 100	> 100	> 100	> 100	> 100				
NC1=C(NC(=O)Cc2ccccc2F)C(=O)c2ccccc2C1=O		> 100	> 100		> 100	> 100	62.6	69.7	> 100	> 100	> 100				
CS(=O)(=O)OCCN(CCOS(C)(=O)=O)c1ccc(C=Nc2cccc(Cl)c2)cc1	> 100 µM	10	> 100		> 30.4	27.8	> 31.1	6.79	20.7	> 100	66.5				
CCOC(=O)c1nnsc1N/N=C\c1ccc([N+](=O)[O-])cc1	> 100 µM	> 100		> 100	> 100	> 100	> 100	> 100	> 100	> 100	> 100				
O=c1cc(CO)oc2c3c(cc(O)c12)OCC(COC1OC(CO)C(O)C(O)C1O)=CC3 (centres undefined)		> 100	> 100		> 100	> 100	> 100	> 100	> 100	> 100	> 100				
CCOC(=O)c1[nH]c(Br)c(-c2ccc(OC)c(OC)c2)c1Br	4.65 µM and 18.3 µM	15.4	1.99		20.3	49.4	32.8	55.2	1.44	9.96	20.2	0.0155	0.04	0.0152	1.59
Cc1c2c3ccccc3nc-2n(C)c2ccccc12	29.6 µM	11.3		14.5	12.5	6.97	7.75	9.09	12.7	6.25					
O=S(=O)(O)c1cc(N=Nc2c(O)ccc3ccccc23)ccc1/C=C/c1ccc(N=Nc2c(O)ccc3ccccc23)cc1S(=O)(=O)O		> 100		> 100	> 100	> 100	> 100	> 100	> 100	> 100	> 100				
COc1cc(C(C)O)c(S(=O)(=O)CC(C)O)nn1 (centres undefined)	> 100 µM	> 100	> 100	> 100	> 100	> 100		> 100		> 100					
C=C1C(=O)O[C@H]2C[C@@]3(COC(C)=O)C=COC=C(COC(=O)C(C)C)C3CC12 (some centres undefined)	> 100 µM	> 100	63.2	> 100	> 100	> 100	67.5	> 100	> 100	> 100					
O=C1c2cc(Cl)ccc2NC(=NC2CCCC2)C2CSCN12 (centres undefined)	> 100 µM	> 100		> 100	> 100	> 100	> 100	> 100	> 100	> 100	> 100				
C=CCC1CC(n2cc(C)c(=O)[nH]c2=O)OC1CO[Si](C)(C)C(C)(C)C (centres undefined)	31.1 µM	29.1		27.4	30.4	29.1	25.4	30.1	29.6	24.9	32.8				
CN(C(=O)Cc1ccccc1)n1cnn(CC(=O)OC(C)(C)C)c1=S	> 10 µM	> 10		> 10	> 10	> 10	> 10	> 10	> 10	> 10					
Brc1ccc(C[P+]2(c3ccccc3)CCCCC2)cc1		> 100	75.8		> 100	> 100	77.1	> 100	> 100	> 100	> 100				
O=C(/C=C/c1ccc(-c2ccccc2)cc1)NCc1ccc(C(=O)NCc2ccccc2)cc1	> 100 µM	> 100		> 100	> 100	> 100	> 100	> 100	> 100	> 100	> 100				
NC(=S)/N=C(/c1nc2ccc(Cl)cc2[nH]c1=O)C(O)c1ccccc1Cl (centres undefined)		> 100	> 100		> 100		> 100	> 100	> 100	> 100	> 100				
O=C1c2ccccc2C(=O)c2cc(N=Nc3c(O)ccc4ccccc34)ccc21	> 100 µM	> 100		> 100	> 100	> 100	> 100	> 100	> 100	> 100	> 100				
CCOc1ccc2[nH]c3c(C)c4ccncc4c(C)c3c2c1		1.61			3.61	1.93	3.1	3.59	2.16	13.9	2.48				
